This is an account of results in patent US20250195521A1 (Revolution Medicines, Inc., priority 2020, published 2025).

Where only a bound is given, the exact number is not on record here.

Test [1] relates to SW1573. The following applies: cited from earlier work.
The subject of a further test is SW1573 cells. The following applies: cited from earlier work.
Test [2] relates to SW1573. The following applies: Canon et al. 2019; cited from earlier work.
In test [3] the target is KRAS G13C binding to BRAF RBD (Homo sapiens (Human), UniProt P01116+P62937, G13C). The test can be described thus: Ras-Raf disruption/FRET/MOA assay, KRAS G13C. Type of test: biochemical. The source says:
Disruption of B-Raf Ras-binding Domain (BRAF^RBD) Interaction with K-Ras by Compounds of the Invention (also called a FRET assay or an MOA assay)
Note—The following protocol describes a procedure for monitoring disruption of K-Ras G12C(GMP-PNP) binding to BRAF^RBD by a compound of the invention. This protocol may also be executed substituting other Ras proteins or nucleotides.
The purpose of this biochemical assay was to measure the ability of test compounds to facilitate ternary complex formation between a nucleotide-loaded K-Ras isoform and Cyclophilin A; the resulting ternary complex disrupts binding to a BRAF^RBD construct, inhibiting K-Ras signaling through a RAF effector. Data is reported as IC50 values.
In assay buffer containing 25 mM HEPES pH 7.3, 0.002% Tween20, 0.1% BSA, 100 mM NaCl and 5 mM MgCl2, tagless Cyclophilin A, His6-K-Ras-GMPPNP, and GST-BRAF^RBD were combined in a 384-well assay plate at final concentrations of 25 μM, 12.5 nM and 50 nM, respectively. Compound was present in plate wells as a 10-point 3-fold dilution series starting at a final concentration of 30 μM. After incubation at 25° C. for 3 hours, a mixture of Anti-His Eu—W1024 and anti-GST allophycocyanin was then added to assay sample wells at final concentrations of 10 nM and 50 nM, respectively, and the reaction incubated for an additional 1.5 hours. […] Compounds that facilitate disruption of a K-Ras: RAF complex were identified as those eliciting a decrease in the TR-FRET ratio relative to DMSO control wells.

Test [4] addresses NRAS G12C binding to BRAF RBD (Homo sapiens (Human), UniProt P01111+P62937, G12C). The experiment in a line: Ras-Raf disruption/FRET/MOA assay, NRAS G12C. Type of test: biochemical. The essentials: (§1)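 Cpd 10-pt 3-fold dilution, top 30 μM final; Ras/CypA/BRAF RBD mix 3 h, 25° C. Add anti-His Eu-W1024 10 nM + anti-GST APC 50 nM final, 1.5 h. Readout TR-FRET ratio decrease vs DMSO → IC50.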

Another test has as its system NCI-H358 (K-Ras G12C). The experiment in a line: CellTiter-Glo cell viability assay, NCI-H358. Type of test: cell-based, human. Conditions: Homo sapiens, NCI-H358, 120 h, 5-day treatment; read-out: H358 Cell Viability assay data (K-Ras G12C, IC50). The essentials: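 Five-day compound treatment of NCI-H358 cells, then CellTiter-Glo luminescence, percent of DMSO, four-parameter logistic fit.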
A general note: Cellular ATP, detected with luciferase, serves as a proxy for viable cell number.

Test [5] concerns the target KRAS WT binding to BRAF RBD (Homo sapiens (Human), UniProt P01116+P62937). The test can be described thus: Ras-Raf disruption/FRET/MOA assay, KRAS WT. The class given is biochemical. The essentials:
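TR-FRET disruption assay: His6-tagged GMPPNP-loaded Ras (12.5 nM), GST-BRAF RBD (50 nM) and Cyclophilin A (25 μM) incubated with compound (10-point 3-fold series from 30 μM) 3 h at 25°C in HEPES pH 7.3 buffer with MgCl2 and NaCl. Anti-His Eu (10 nM)/anti-GST APC (50 nM) added, 1.5 h more; IC50 from FRET-ratio decrease versus DMSO.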

Test [6] relates to K-Ras G12C (NCI-H358 cells). The test can be described thus: Potency assay: pERK in NCI-H358 cells. Type of test: cell-based, human. The following applies: Homo sapiens; NCI-H358 cells, 4 hours; read-out: pERK EC50 (H358 KRAS G12C). The essentials:
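Cells plated the day before were exposed for 4 h at 37° C, 5% CO2 to a 10-point, 3-fold DMSO dilution series (10 mM top stock), in duplicate. Phospho-ERK was read by AlphaLISA SureFire Ultra or by In-Cell Western with DRAQ5 DNA stain, and IC50 came from a 4-parameter sigmoidal fit.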

Test [7] addresses K-Ras G12C(GMP-PNP) binding to BRAF RBD (Homo sapiens (Human), UniProt P01116+P62937, G12C). The experiment in a line: Disruption of BRAF RBD interaction with K-Ras (FRET / MOA assay), K-Ras G12C. Type of test: biochemical. Conditions: read-out: KRAS G12C FRET IC50. The essentials: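 Compounds promote ternary complex of nucleotide-loaded Ras (here K-Ras G12C·GMP-PNP; other Ras mutants substituted) with cyclophilin A, disrupting BRAF RBD binding. 10-point 3-fold series from 30 μM final, 3 h at 25 °C, then anti-His Eu (10 nM) and anti-GST APC (50 nM) for 1.5 h. TR-FRET ratio decrease versus DMSO gave IC50.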

For test [8], the target named is KRAS G12S binding to BRAF RBD (Homo sapiens (Human), UniProt P01116+P62937, G12S). The test can be described thus: Ras-Raf disruption/FRET/MOA assay, KRAS G12S. The class given is biochemical. In outline:
as §1

A further test concerns LN229 tumors (SHP2 A72S). The test can be described thus: LN229 CDX xenograft model (Example 5). Type of test: in vivo, mouse. Conditions: 100 mg/kg po qd. On the procedure:
(§2) Mice were implanted with (A) PAN02 tumor cells (1e6 cells/mouse) or (B) LN229 tumor cells in 50% matrigel (10e6 cells/mouse) subcutaneously in the flank. Once tumors reached an average size of ˜200 mm^3 mice were randomized to treatment groups and administration of test article or vehicle (2% HPMC E-50, 0.5% Tween-80 in 50 mM Sodium Citrate Buffer, pH 4.0). Body weight and tumor volume (using digital calipers) were measured twice a week until study endpoints. Compounds were administered by oral gavage daily.

Test [9] deals with PAN02 tumors (SHP2 G503V). The experiment in a line: PAN02 syngeneic tumor model (Example 2). Type of test: in vivo, mouse. The following applies: PAN02, immunocompetent mice; Compound SOS1-(A) 100 mg/kg daily oral.
Test [10] relates to PAN02 tumors (SHP2 G503V). The test can be described thus: PAN02 syngeneic tumor model (Example 5). The class given is in vivo, mouse. The following applies: 100 mg/kg po qd and 250 mg/kg po qd. On the procedure:
as §2

The test system of test [11] is PAN02 tumors (PTPN11 G503V). The experiment in a line: PAN02 PTPN11 G503V syngeneic model (Example 12). The class given is in vivo, mouse. Conditions: PO daily; Compound SOS1-(C) 100 mg/kg for 7 days then 50 mg/kg, abemaciclib 30 mg/kg. As to the method:
(§3) The combinatorial effects of Compound SOS1-(C) with Abemaciclib on tumor cell growth in vivo were evaluated in the murine pancreatic ductal adenocarcinoma PAN02 PTPN11G503V syngeneic model using female C57BL/6J mice (6-7 weeks old). Mice were implanted with PAN02 tumor cells in PBS (5 ×10^6cells/mouse) subcutaneously in the flank. Once tumors reached an average size of ˜130 mm3, mice were randomized to treatment groups to start the administration of test articles or control. All test articles were administered by oral gavage daily. Body weight and tumor volume (using calipers) was measured twice weekly until study endpoints.

Test [12] has as its system NCI-H358 KRASG12C xenograft. The test can be described thus: In vivo NSCLC K-Ras G12C xenograft model. Also on record: species or system BALB/c nude mice. The following applies: single agent. As to the method: Mice were implanted with NCI-H358 tumor cells in 50% Matrigel (5×10^6 cells/mouse) subcutaneously in the flank. At the indicated tumor volume (dotted line, FIG. 2A), mice were randomized to treatment groups to start the administration of test articles or vehicle. […] Body weight and tumor volume (using calipers) was measured twice weekly until study endpoints.
Mice were implanted with NCI-H358 tumor cells in 50% Matrigel (5×10^6 cells/mouse) subcutaneously in the flank. At indicated tumor volume (dotted line, FIG. 3A), mice were randomized to treatment groups to start the administration of test articles or vehicle. […] Cobimetinib was administered by daily oral gavage at 2.5 mg/kg. The combination of Compound B and cobimetinib at their respective single-agent dose and regimen was also tested. Body weight and tumor volume (using calipers) was measured twice weekly until study endpoints.
Mice were implanted with NCI-H358 tumor cells in 50% Matrigel (5×10^6 cells/mouse) subcutaneously in the flank. At indicated tumor volume (dotted line, FIG. 4A), mice were randomized to treatment groups to start the administration of test articles or vehicle. […] Body weight and tumor volume (using calipers) was measured twice weekly until study endpoints.

In test [13] the test system is LN229.E76K tumors (PTPN11 E76K). The experiment in a line: LN229.E76K glioblastoma xenograft (Example 11). The class given is in vivo, mouse. The following applies: PO daily; Compound SOS1-(B) 50 mg/kg, cobimetinib 2.5, and combination. On the procedure:
The combinatorial effects of Compound SOS1-(B) with cobimetinib on tumor cell growth in vivo were evaluated in a human engineered model of PTPN11-mutant glioblastoma, LN229.E76K xenograft model using female athymic nude mice (6-7 weeks old). Mice were implanted with LN229.E76K tumor cells in 50% Matrigel (10×10^6cells/mouse) subcutaneously in the flank. Once tumors reached an average size of ˜200 mm3, mice were randomized to treatment groups to start the administration of test articles or control. All test articles were administered by oral gavage daily. Body weight and tumor volume (using calipers) was measured twice weekly until study endpoints.

For test [14] the test system is unchanged. The experiment in a line: LN229.E76K glioblastoma xenograft (Example 8). Type of test: in vivo, mouse. The following applies: PO daily; Compound SOS1-(C) 50 mg/kg, RMC-4550 30 mg/kg, cobimetinib […]. As to the method: 6-7 week athymic nude mice were implanted with LN229.E76K in 50% matirgel (10×10^6 cells/mouse) subcutaneously in the flank. Once tumors reached an average size of 200 mm^3, mice were randomized into treatment groups to start the administration of test articles or control. All treatments were administered daily by oral gavage. Body weight and tumor volume (using calipers) was measured twice weekly until study endpoint.

The subject of test [15] is PAN02 tumors (PTPN11 G503V). The experiment in a line: PAN02 PTPN11 G503V syngeneic model (Example 10). Conditions: PO daily. Type of test: in vivo, mouse. On the procedure: as §3, with “cobimetinib” for “Abemaciclib”, “mm^3,” for “mm3,”
In a further test the test system is NCI-H358 cells. The test can be described thus: 72-hour proliferation assay using CellTiter-Glo, NCI-H358. The class given is cell-based, human. Conditions: read-out: EC50, 72-hour proliferation assay. On the procedure:
The plate was placed in the Incucyte S3 live cell analysis system (37° C., 5% CO2) and confluence was measured by recording images at 6-hour intervals for a maximum of 40 days, or until wells reached maximal confluence. Media and drug were replaced at 3-4 day intervals. Data are plotted as % confluence over the time course of the experiment for each single agent and respective combination (FIG. 5).

KRAS G13C binding to BRAF RBD, sequence (P01116 other isoform, or with tags, fused parts or gaps G13C): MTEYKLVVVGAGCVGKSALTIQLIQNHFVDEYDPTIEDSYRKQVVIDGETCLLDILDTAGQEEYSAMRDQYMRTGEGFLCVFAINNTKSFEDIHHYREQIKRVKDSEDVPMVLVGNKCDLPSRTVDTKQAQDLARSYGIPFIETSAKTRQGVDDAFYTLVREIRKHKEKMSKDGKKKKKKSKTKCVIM
KRAS G13C binding to BRAF RBD, sequence (P62937 whole entry, the tested form may be a part): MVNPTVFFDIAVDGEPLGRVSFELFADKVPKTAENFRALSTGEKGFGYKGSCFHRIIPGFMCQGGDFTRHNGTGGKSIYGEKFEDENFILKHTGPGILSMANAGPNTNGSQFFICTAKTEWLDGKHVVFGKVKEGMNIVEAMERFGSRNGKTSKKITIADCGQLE
NRAS G12C binding to BRAF RBD, sequence (P01111 whole entry G12C): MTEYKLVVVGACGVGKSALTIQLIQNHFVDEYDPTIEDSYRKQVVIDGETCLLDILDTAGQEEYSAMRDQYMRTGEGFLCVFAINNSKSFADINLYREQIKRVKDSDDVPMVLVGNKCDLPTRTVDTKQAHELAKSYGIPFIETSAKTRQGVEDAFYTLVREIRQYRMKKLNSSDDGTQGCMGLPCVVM
NRAS G12C binding to BRAF RBD, sequence (P62937 whole entry): as the sequence (P62937 whole entry, the tested form may be a part) above
KRAS G12S binding to BRAF RBD, sequence (P01116 other isoform, or with tags, fused parts or gaps G12S): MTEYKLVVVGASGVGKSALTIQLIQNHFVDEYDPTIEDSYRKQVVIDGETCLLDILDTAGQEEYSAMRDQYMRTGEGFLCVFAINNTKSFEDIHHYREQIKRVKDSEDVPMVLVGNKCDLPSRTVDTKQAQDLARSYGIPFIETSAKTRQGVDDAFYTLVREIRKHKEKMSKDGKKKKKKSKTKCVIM
KRAS G12S binding to BRAF RBD, sequence (P62937 whole entry): as the sequence (P62937 whole entry, the tested form may be a part) above
KRAS WT binding to BRAF RBD, sequence (P01116 other isoform, or with tags, fused parts or gaps): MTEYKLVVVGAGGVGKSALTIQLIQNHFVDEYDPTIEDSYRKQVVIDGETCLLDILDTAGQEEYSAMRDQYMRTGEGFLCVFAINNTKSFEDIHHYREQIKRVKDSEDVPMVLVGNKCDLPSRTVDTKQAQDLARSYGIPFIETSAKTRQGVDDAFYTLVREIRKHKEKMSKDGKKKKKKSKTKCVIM
KRAS WT binding to BRAF RBD, sequence (P62937 whole entry): as the sequence (P62937 whole entry, the tested form may be a part) above
K-Ras G12C(GMP-PNP) binding to BRAF RBD, sequence (P01116 other isoform, or with tags, fused parts or gaps G12C): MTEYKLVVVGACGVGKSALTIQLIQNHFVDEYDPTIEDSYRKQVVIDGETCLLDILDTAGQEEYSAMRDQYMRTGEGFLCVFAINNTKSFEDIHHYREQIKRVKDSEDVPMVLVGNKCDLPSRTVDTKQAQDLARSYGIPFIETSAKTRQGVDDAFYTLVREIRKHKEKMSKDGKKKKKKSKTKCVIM
K-Ras G12C(GMP-PNP) binding to BRAF RBD, sequence (P62937 whole entry): as the sequence (P62937 whole entry, the tested form may be a part) above

Take `C=CC(=O)N1CCN(c2nc(=O)n(-c3c(C)ccnc3C(C)C)c3nc(-c4c(O)cccc4F)c(F)cc23)[C@@H](C)C1` [AMG510, sotorasib]: the “sensitivity of cell line” value with SW1573 [1] and with SW1573 cells was “insensitive” each time. The “sensitivity of SW1573” value with SW1573 [2] is “insensitive”.
What is called IC50 is the concentration that inhibits the measured activity by half. On to `CCn1c(-c2cnccc2COC)c2c3cc(ccc31)-c1cc(O)cc(c1)C[C@H](NC(=O)[C@H](C(C)C)N(C)C(=O)[C@H]1CCN(C(=O)C#CCN(C)C)C1)C(=O)N1CCC[C@H](N1)C(=O)OCC(C)(C)C2` [Compound A107], for which the IC50 in [3] and in test [4] was less than 10 nM each time.
`CCn1c(-c2cccnc2[C@H](C)OC)c2c3cc(ccc31)-c1csc(n1)C[C@H](NC(=O)[C@H](C(C)C)N(C)C(=O)N1CC(C)(OC)C1)C(=O)N1CCC[C@H](N1)C(=O)OCC(C)(C)C2` [Compound A299]: the IC50 in the test with NCI-H358 (K-Ras G12C) is less than 10 nM; in test [5], 10 to 100 nM; in test [7] it was less than 10 nM; in test [3] it was less than 10 nM; in [8], 10 to 100 nM. In addition, in [6], the EC50 is less than 5000 nM.
With `COC1(C(=O)N2Cc3nc(Cl)nc(C[C@H](C)c4cc(N)cc(C(F)(F)F)c4)c3C2)CCOCC1` [Compound SOS1-(A)], the “inhibition of tumor growth in vivo” value in the test on LN229 tumors (SHP2 A72S) is given as “near complete inhibition of tumor growth”; in test [9], “substantially higher levels of tumor growth inhibition”; in [10], “near complete inhibition of tumor growth”.
`CCN1CCN(Cc2ccc(Nc3ncc(F)c(-c4cc(F)c5nc(C)n(C(C)C)c5c4)n3)nc2)CC1` [abemaciclib]: the “tumor growth inhibition (TGI)” value in [11] is recorded as 52%.
For `O=C(c1ccc(F)c(F)c1Nc1ccc(I)cc1F)N1CC(O)([C@@H]2CCCCN2)C1` [cobimetinib], the tumor growth response result in [12] (A 100 mg/kg po daily 28 days, B 50 mg/kg iv twice weekly, cobimetinib […] po daily, C 60 mg/kg iv once weekly) is “tumor growth inhibition”. In addition, the “mice with tumor regression (of 10)” value in test [12] (regression = greater than 10% reduction of tumor volume, SHP2 inhibitor 30 mg/kg po daily) is listed as “no tumor regressions”. The “tumor growth inhibition (TGI)” value in test [13] turned out to be 62%; in test [14] it was 41%; in [15] (Compound SOS1-(C) 100 mg/kg, cobimetinib […]), 38%; in test [15] (cobimetinib 5 mg/kg), 49%.
As for `CC(=O)Nc1cccc(-n2c(=O)n(C3CC3)c(=O)c3c(Nc4ccc(I)cc4F)n(C)c(=O)c(C)c32)c1` [trametinib], the EC50 with NCI-H358 cells was 10 nM.
